Experimental data reported in PubChem BioAssay AID256 (DTP/NCI, 2004).
Several values for one entry are separate records, joined by “and”; a condition that tells them apart may be missing. Equal entries are not always repeated. Inconclusive results and toxic doses are left out.

Tested on: CD2F1 mice, L1210 leukemia ip, survival T/C
Assay: NCI In Vivo Anticancer Drug Screen. Data for tumor model L1210 Leukemia (intraperitoneal) in CD2F1 (CDF1) mice
Conditions: higher = longer survival
Method in brief: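 Implant tumor; dose compound or vehicle; measure endpoint in both groups; report treated divided by control.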

[1] = endpoint: mean survival time, dose: 100.0 mg/kg/injection, schedule: Q04DX002 (ip), vehicle: saline with Tween-80
[2] = endpoint: mean survival time, dose: 200.0 mg/kg/injection, schedule: Q04DX002 (ip), vehicle: saline with Tween-80
[3] = endpoint: mean survival time, dose: 400.0 mg/kg/injection, schedule: Q04DX002 (ip), vehicle: saline with Tween-80

O=C(/C=C\C=C\c1ccc2c(c1)OCO2)N1CCCCC1
T/C (endpoint: mean survival time, dose: 12.5 mg/kg/injection, schedule: Q01DX009 (ip), vehicle: saline with Tween-80): 111 % of control | T/C (endpoint: mean survival time, dose: 25.0 mg/kg/injection, schedule: Q01DX009 (ip), vehicle: saline with Tween-80): 107 % of control | T/C (endpoint: mean survival time, dose: 50.0 mg/kg/injection, schedule: Q01DX009 (ip), vehicle: saline with Tween-80): 104 % of control

O=C(NC/C=C/Br)Oc1cccc2ccccc12
T/C [1]: 101 % of control | T/C [2]: 93 % of control | T/C [3]: 101 % of control

CN(CCC#N)C(=O)Nc1ccc(Cl)cc1
T/C (endpoint: mean survival time, dose: 100.0 mg/kg/injection, schedule: Q04DX002 (ip), vehicle: other): 106 % of control | T/C (endpoint: mean survival time, dose: 200.0 mg/kg/injection, schedule: Q04DX002 (ip), vehicle: other): 101 % of control | T/C (endpoint: mean survival time, dose: 400.0 mg/kg/injection, schedule: Q04DX002 (ip), vehicle: other): 106 % of control

O=C[C@@H](CO)O[C@H](C=O)c1c[nH]c(=O)[nH]c1=O
T/C (endpoint: median survival time, dose: 2.5 mg/kg/injection, schedule: Q01DX009 (ip), vehicle: saline): 118 % of control | T/C (endpoint: median survival time, dose: 7.5 mg/kg/injection, schedule: Q04DX003 (ip), vehicle: saline): 102 % of control | T/C (endpoint: median survival time, dose: 12.5 mg/kg/injection, schedule: Q01DX009 (ip), vehicle: water): 124 % of control | T/C (endpoint: median survival time, dose: 15.0 mg/kg/injection, schedule: Q04DX003 (ip), vehicle: saline): 102 % of control | T/C (endpoint: median survival time, dose: 30.0 mg/kg/injection, schedule: Q04DX003 (ip), vehicle: saline): 114 % of control | T/C (endpoint: median survival time, dose: 40.0 mg/kg/injection, schedule: Q01DX009 (ip), vehicle: saline): 158 % of control | T/C (endpoint: median survival time, dose: 50.0 mg/kg/injection, schedule: Q01DX009 (ip), vehicle: saline): 158 % of control | T/C (endpoint: median survival time, dose: 54.0 mg/kg/injection, schedule: Q04DX003 (ip), vehicle: saline): 156 % of control | T/C (endpoint: median survival time, dose: 60.0 mg/kg/injection, schedule: Q04DX003 (ip), vehicle: saline): 119 % of control | T/C (endpoint: median survival time, dose: 66.7 mg/kg/injection, schedule: Q04DX003 (ip), vehicle: saline): 151 % of control | T/C (endpoint: median survival time, dose: 90.0 mg/kg/injection, schedule: Q04DX003 (ip), vehicle: saline): 178 % of control | T/C (endpoint: median survival time, dose: 100.0 mg/kg/injection, schedule: Q01DX009 (ip), vehicle: water): 89 % of control | T/C (endpoint: median survival time, dose: 100.5 mg/kg/injection, schedule: Q04DX003 (ip), vehicle: saline): 164 % of control | T/C (endpoint: median survival time, dose: 105.0 mg/kg/injection, schedule: Q04DX003 (ip), vehicle: saline): 229 % of control | T/C (endpoint: median survival time, dose: 120.0 mg/kg/injection, schedule: Q04DX003 (ip), vehicle: saline): 175 % of control and 184 % of control | T/C (endpoint: median survival time, dose: 135.0 mg/kg/injection, schedule: Q04DX003 (ip), vehicle: saline): 164 % of control | T/C (endpoint: median survival time, dose: 165.0 mg/kg/injection, schedule: Q04DX003 (ip), vehicle: saline): 625 % of control | T/C (endpoint: median survival time, dose: 180.0 mg/kg/injection, schedule: Q04DX003 (ip), vehicle: saline): 218 % of control and 228 % of control | T/C (endpoint: median survival time, dose: 224.9 mg/kg/injection, schedule: Q04DX003 (ip), vehicle: saline): 202 % of control

NCCCCCBr
T/C (endpoint: mean survival time, dose: 50.0 mg/kg/injection, schedule: Q01DX009 (ip), vehicle: saline): 98 % of control | T/C (endpoint: mean survival time, dose: 100.0 mg/kg/injection, schedule: Q01DX009 (ip), vehicle: saline): 90 % of control | T/C (endpoint: mean survival time, dose: 200.0 mg/kg/injection, schedule: Q01DX009 (ip), vehicle: saline): 98 % of control

O=C(O)/C=N/NS(=O)(=O)c1ccc2ccccc2c1
T/C (endpoint: mean survival time, dose: 12.5 mg/kg/injection, schedule: Q04DX003 (ip), vehicle: other): 114 % of control | T/C (endpoint: mean survival time, dose: 25.0 mg/kg/injection, schedule: Q04DX003 (ip), vehicle: other): 119 % of control | T/C (endpoint: mean survival time, dose: 50.0 mg/kg/injection, schedule: Q04DX003 (ip), vehicle: other): 119 % of control | T/C (endpoint: mean survival time, dose: 100.0 mg/kg/injection, schedule: Q04DX003 (ip), vehicle: other): 110 % of control | T/C (endpoint: mean survival time, dose: 200.0 mg/kg/injection, schedule: Q04DX003 (ip), vehicle: other): 103 % of control

CSc1ncc(Br)c(Sc2nc(N)nc3nc[nH]c23)n1
T/C (endpoint: mean survival time, dose: 2.2 mg/kg/injection, schedule: Q01DX001 (ip), vehicle: saline with Tween-80): 123 % of control | T/C (endpoint: mean survival time, dose: 3.0 mg/kg/injection, schedule: Q01DX001 (ip), vehicle: saline with Tween-80): 117 % of control | T/C (endpoint: mean survival time, dose: 3.4 mg/kg/injection, schedule: Q01DX001 (ip), vehicle: saline with Tween-80): 123 % of control | T/C (endpoint: mean survival time, dose: 4.4 mg/kg/injection, schedule: Q01DX001 (ip), vehicle: saline with Tween-80): 122 % of control

CS(=O)(=O)C(Cl)(Cl)S(C)(=O)=O
T/C (endpoint: mean survival time, dose: 6.25 mg/kg/injection, schedule: Q04DX003 (ip), vehicle: saline with Tween-80): 95 % of control | T/C (endpoint: mean survival time, dose: 12.5 mg/kg/injection, schedule: Q04DX003 (ip), vehicle: saline with Tween-80): 91 % of control | T/C (endpoint: mean survival time, dose: 25.0 mg/kg/injection, schedule: Q04DX003 (ip), vehicle: saline with Tween-80): 91 % of control

O=[N+]([O-])c1ccc2c(c1)sc1cc([N+](=O)[O-])c(Br)cc12
T/C [1]: 97 % of control | T/C [2]: 94 % of control | T/C [3]: 112 % of control

CSc1nc2c(c(=O)[nH]1)c1c(N)ncnc1n2C1OC(CO)C(O)C1O (stereo not given)
T/C (endpoint: mean survival time, dose: 25.0 mg/kg/injection, schedule: Q01DX005 (ip), vehicle: water): 88 % of control | T/C (endpoint: mean survival time, dose: 50.0 mg/kg/injection, schedule: Q01DX005 (ip), vehicle: water): 94 % of control | T/C (endpoint: mean survival time, dose: 100.0 mg/kg/injection, schedule: Q01DX005 (ip), vehicle: water): 88 % of control | T/C (endpoint: mean survival time, dose: 200.0 mg/kg/injection, schedule: Q01DX005 (ip), vehicle: water): 100 % of control

COc1cc(N)c2nc(C(O)C(O)C(O)CO)cnc2c1 (stereo not given)
T/C (endpoint: median survival time, dose: 12.5 mg/kg/injection, schedule: Q01DX005 (ip), vehicle: distilled water + Tween-80): 98 % of control | T/C (endpoint: median survival time, dose: 25.0 mg/kg/injection, schedule: Q01DX005 (ip), vehicle: distilled water + Tween-80): 90 % of control | T/C (endpoint: median survival time, dose: 50.0 mg/kg/injection, schedule: Q01DX005 (ip), vehicle: distilled water + Tween-80): 89 % of control | T/C (endpoint: median survival time, dose: 100.0 mg/kg/injection, schedule: Q01DX005 (ip), vehicle: distilled water + Tween-80): 92 % of control | T/C (endpoint: median survival time, dose: 200.0 mg/kg/injection, schedule: Q01DX005 (ip), vehicle: distilled water + Tween-80): 95 % of control

O=C(/C=C/c1ccccn1)c1ccccc1
T/C (endpoint: mean survival time, dose: 100.0 mg/kg/injection, schedule: Q04DX002 (ip), vehicle: Klucel (hydroxypropylcellulose) (HPC)): 97 % of control | T/C (endpoint: mean survival time, dose: 200.0 mg/kg/injection, schedule: Q04DX002 (ip), vehicle: Klucel (hydroxypropylcellulose) (HPC)): 104 % of control

CC(C)C(Nc1sc([N+](=O)[O-])cc1[N+](=O)[O-])C(=O)O (stereo not given)
T/C (endpoint: mean survival time, dose: 100.0 mg/kg/injection, schedule: Q01DX001 (ip), vehicle: saline with Tween-80): 90 % of control | T/C (endpoint: mean survival time, dose: 200.0 mg/kg/injection, schedule: Q01DX001 (ip), vehicle: saline with Tween-80): 102 % of control | T/C (endpoint: mean survival time, dose: 400.0 mg/kg/injection, schedule: Q01DX001 (ip), vehicle: saline with Tween-80): 107 % of control
